According to US20240002441A1, “PEPTIDES AND USES THEREOF IN MODULATION OF AMYLOID-BETA PROTEIN DEGRADING PROTEASES” (priority 2020, published 2024):

What was measured:
ACE2 = molecular target: T1, ACE2 (Homo sapiens, UniProt Q9BYF1); test: Cleavage of synthetic Ang II to Ang 1-7 by ACE2, LCMS (Example 8); assay type: biochemical; conditions: rhACE2 0.1 ng/μL, peptide 1.7 μM, Ang II 0.02 μg/μL
T1 construct: purchased R & D systems 933-ZN-010
Protocol: Samples were analysed by LC-MS/MS using a quadrupole TOF mass spectrometer (MicroTOFq, Bruker Daltonics, Bremen, Germany) coupled online with a 1200 series nano-HPLC (Agilent technologies, Santa Clara, CA, USA). Samples were injected onto a zorbax 300SB reversed phase trap column with 95% solvent A (0.1% formic acid) at a flow rate of 10 μL/minute. The peptides were eluted over a 10-min gradient to 70% solvent B (80% acetonitrile, 0.1% formic acid) and separated on a 15-cm, 75-μmID zorbax 300SB nanocolumn. The eluent was nebulised and ionised using the Bruker nano-ESI source with a capillary voltage of 4500 V, dry gas at 180° C., flow rate of 5 L/minute and nebuliser gas pressure at 300 mbar. The MS acquisition was in selected ion monitoring mode after selected ion extraction of the MS spectra. Prior to analysis, the qTOF mass spectrometer was calibrated using a 1:50 dilution tuning mix (Agilent technologies, Santa Clara, CA, USA). Data from MS run were processed in Skyline version 19.1.0.193 (Uni. Of Washington, WA, USA) to perform ion chromatogram extractions and peak integrations.
rhACE2 (0.1 ng/μL) was incubated with SEQ ID NO:2 (1.7 μM) for 1 h at 37° C. Ang II (0.02 μg/μL) was then added to the reaction mixture. Aliquots of equal volume were collected at 0, 3, 6 and 24 h. […] The samples were analysed by LC-MS/MS using the method in Example 7.

[1] = system: Ang II-induced expression of IL-6 and Collagen III in EA.hy926 cells; test: Ang II-induced expression of IL-6 and Collagen III in EA.hy926 cells, western blotting (Example 9); assay type: cell-based; conditions: 24 h
Protocol: EA.hy926 cells (passage 40) were seeded at a density of 1×10^6 cells/mL. After 24 hours, cells were incubated overnight in reduced serum media. Cells were then treated over 24 h as follows: • 1. Vehicle control • 2. Ang II (10 nM) • 3. […] Ang II (10 nM)+rhACE2 (0.05 ng/μL) • 5.
Following incubation, cells were lysed using lysis buffer (Thermo Fisher Scientific, Cat #89900) containing 1% protease inhibitor (Thermo Fisher Scientific, Cat #1861278). Cell lysate was centrifuged at 13,000 rpm for 10 min. Protein concentration in the supernatant was determined by NanoDrop (Thermo Fisher Scientific, Cat #ND-1000). Supernatants were stored at −30° C. until analysed.
Samples were diluted in SDS-PAGE reducing sample buffer (Bio-Rad Laboratories, Cat #1610747; California, USA) containing 1% β-mercaptoethanol (Bio-Rad Laboratories, Cat #221610710) to reach a final concentration of […]. Prior to loading, samples were heated at 95° C. for 5 min. Samples were loaded into the wells alongside the molecular weight marker (Life Technologies, Cat #LC5800; California, USA). Electrophoresis was conducted at 200 V for 40 min in 1× running buffer. Following protein separation by SDS-PAGE, proteins were blotted onto nitrocellulose membranes at 100 V for 1 h in 1× transfer buffer. The membranes were then blocked in 5% skim milk in 1× Tris-buffered saline (TBST) containing 0.05% Tween 20 (Thermo Fisher Scientific, Cat #28352) for 1 h at room temperature. The membranes were incubated with IL-6 (1:500; Thermo Fisher Scientific, Cat #700480) or collagen III (1:500; Invitrogen, Cat #PA5-27828) primary antibodies while rocking at 4° C. overnight. Membranes were then probed with secondary antibody conjugated with horseradish peroxidase (HRP) (1:6000) for 1 h at room temperature. The HRP-labelled proteins were detected using chemiluminescence SuperSignal™ ECL Western Blotting Substrate (Thermo Fisher Scientific, Cat #34577) at 1:1 ratio. Beta-actin was used as a loading control. Protein bands were analysed using ImageJ (version 1.51) and band density was normalised with the respective beta-actin.

T1 sequence (Q9BYF1 18-805): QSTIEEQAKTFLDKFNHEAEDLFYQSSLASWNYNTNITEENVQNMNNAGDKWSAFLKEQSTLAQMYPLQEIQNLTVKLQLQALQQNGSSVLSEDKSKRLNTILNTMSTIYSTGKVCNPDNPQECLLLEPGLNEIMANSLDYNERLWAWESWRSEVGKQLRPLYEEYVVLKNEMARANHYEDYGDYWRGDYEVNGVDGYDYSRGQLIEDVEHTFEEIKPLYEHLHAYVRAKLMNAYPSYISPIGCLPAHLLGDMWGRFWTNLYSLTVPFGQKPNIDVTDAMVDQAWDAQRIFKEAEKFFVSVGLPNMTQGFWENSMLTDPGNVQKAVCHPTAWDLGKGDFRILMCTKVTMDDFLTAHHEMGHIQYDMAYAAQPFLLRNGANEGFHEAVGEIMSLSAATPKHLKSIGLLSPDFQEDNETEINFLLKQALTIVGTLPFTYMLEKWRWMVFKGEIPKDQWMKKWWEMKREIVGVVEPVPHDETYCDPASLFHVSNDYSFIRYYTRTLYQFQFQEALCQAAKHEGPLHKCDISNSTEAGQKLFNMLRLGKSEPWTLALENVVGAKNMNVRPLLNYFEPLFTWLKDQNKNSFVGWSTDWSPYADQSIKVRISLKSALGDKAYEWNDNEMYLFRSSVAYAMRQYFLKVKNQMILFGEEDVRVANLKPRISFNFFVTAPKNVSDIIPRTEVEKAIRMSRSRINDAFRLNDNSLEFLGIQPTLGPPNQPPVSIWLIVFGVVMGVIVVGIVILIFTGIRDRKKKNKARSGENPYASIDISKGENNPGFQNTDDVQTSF

H-SLFELGKMIL-NH2 [SEQ ID NO:2, H2N-SLFELGKMIL-NH2]
production of Ang 1-7 (ACE2): 165±12 % of ACE2 alone | ACE2-mediated breakdown of Ang II over 24 h, decrease in peak area (ACE2; 24 h): 83±5 % of initial | Collagen III expression compared to cells treated with Ang II alone ([1]; Ang II 10 nM plus 2A 26 μM and/or ACE2 0.05 ng/μL): significantly lower | IL-6 expression compared to cells treated with Ang II alone ([1]; Ang II 10 nM plus peptide 26 μM and/or rhACE2 0.05 ng/μL): significantly lower | Collagen III expression ([1]; EA.hy926 cells, Ang II 10 nM alone, or Ang II and 2A (26 μM)): 28±6%
